# Measured values taken from patent publication US8859777B2, “4-fluoro-4-arylpiperdin-1-yl derivatives as mu opioid function moderators” (priority 2010, dated 2014).
# Counter-ions that a name gives are not always drawn.
# Target: T1, Mu opioid receptor (Homo sapiens, UniProt P35372)
# T1 construct: expressed in transfected cells; host or cells: HEK-293
# Test: Affinity for the Mu opioid receptor, [3H]diprenorphine radioligand binding
# Details: not given
# Description: Compounds of the invention were assayed for affinity for the Mu opioid receptor using the methodology described in Zhang et al. (J. Pharmacol. Exp. Ther., (1998) 286: 136-141). Compounds were assessed in human recombinant (HEK-293) cells using tritium labeled diprenorphine (0.4 nM) as the specific determinant and non-specific binding was assayed with naltrexone (1 μM). Cells were incubated for 120 minutes at 22° C. before isolation and radioactivity determination by scintillation counting. The IC50 values (concentration causing a half-maximal inhibition of control specific binding) and Hill coefficients (nH) were determined by non-linear regression analysis of the competition curves generated with mean replicate values using Hill equation curve fitting (Y=D+[(A−D)/(1+(C/C50)^nH)], where Y=specific binding, D=minimum specific binding, A=maximum specific binding, C=compound concentration, C50=IC50, and nH=slope factor). The inhibition constants (Ki) were calculated using the Cheng-Prusoff equation (Ki=IC50/(1+(L/KD)), where L=concentration of radioligand in the assay, and KD=affinity of the radioligand for the receptor). Each data point was obtained in duplicate and results are the mean value.
# T1 sequence (P35372 whole entry): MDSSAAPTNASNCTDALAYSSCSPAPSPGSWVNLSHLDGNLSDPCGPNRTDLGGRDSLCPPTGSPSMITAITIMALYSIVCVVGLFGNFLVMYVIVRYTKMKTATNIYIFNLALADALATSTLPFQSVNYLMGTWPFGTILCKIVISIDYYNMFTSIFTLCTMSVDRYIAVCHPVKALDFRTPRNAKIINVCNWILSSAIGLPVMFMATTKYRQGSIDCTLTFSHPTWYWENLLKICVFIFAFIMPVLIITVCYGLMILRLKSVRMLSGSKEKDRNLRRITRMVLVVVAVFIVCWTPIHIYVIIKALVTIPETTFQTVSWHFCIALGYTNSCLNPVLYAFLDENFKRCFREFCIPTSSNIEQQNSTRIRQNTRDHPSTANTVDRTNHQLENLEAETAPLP
row,Compound,Ki [nM]
1,"Oc1cccc(C2(F)CCN(CCCC3CCCCC3)CC2)c1 [Example 11, 1-(3-Cyclohexylpropyl)-4-fluoro-4-(3-hydroxyphenyl)piperidine Hydrochloride]",< 100
2,"CC1CN(CCOc2ccccc2)CCC1(F)c1cccc(O)c1 (centres unmarked) [Example 13, 4-fluoro-4-(3-Hydroxyphenyl)-3-methyl-1-(2-phenoxyethyl)piperidine Hydrochloride]",< 100
3,"CC1CN(CC(Cc2ccccc2)(Cc2ccccc2)C(=O)O)CCC1(F)c1cccc(O)c1 (centres unmarked) [Example 15, 2,2-Dibenzyl 3-[4-(3-hydroxyphenyl)-4-fluoro-3-methylpiperidin-1-yl]propionic Acid Hydrochloride]",< 100
4,"Cc1ccc(S(=O)(=O)Nc2cccc(C3(F)CCN(CCOc4ccccc4)CC3)c2)cc1 [Example 17, N-{3-[4-Fluoro-1-(2-phenoxyethyl)piperidin-4-yl]phenyl}-4-methyl-benzenesulfonamide Hydrochloride]",100 to 1000

# Same assay, conditions: human recombinant (HEK-293) cells; tritium labeled diprenorphine 0.4 nM; non-specific binding with naltrexone 1 μM; 120 minutes at 22° C.; mean of duplicates; read-out: Affinity
row,Compound,Ki [nM]
1,"FC1(c2ccc(Cl)cc2)CCN(CCC(c2ccccc2)c2ccccc2)CC1 [Example 1, 4-(4-Chlorophenyl)-1-(3,3-diphenylpropyl)-4-fluoropiperidine Hydrochloride]",1000 to 10000
2,"O=C(O)C(Cc1ccccc1)(Cc1ccccc1)CN1CCC(F)(c2ccc(Cl)cc2)CC1 [Example 5, 2,2-Dibenzyl-3-[4-(4-chlorophenyl)-4-fluoropiperidin-1-yl]propionic acid Hydrochloride]",1000 to 10000
3,"CS(=O)(=O)Nc1cccc(C2(F)CCN(CCOc3ccccc3)CC2)c1 [Example 18, N-{3-[4-Fluoro-1-(2-phenoxyethyl)piperidin-4-yl]phenyl}methane-sulfonamide Hydrochloride]",1000 to 10000
4,"CC(C)(C)NC(=O)Nc1cccc(C2(F)CCN(CCOc3ccccc3)CC2)c1 [Example 19, 1-tert-Butyl-3-{3-[4-fluoro-1-(2-phenoxyethyl)-piperidin-4-yl]phenyl}-urea]",1000 to 10000
